Where “and” joins values, the source holds several entries; their conditions need not be identical. Identical values can stand only once.

The first test relates to Mus musculus. The test can be described thus: Antidepressant activity determined by duration of immobility after intraperitoneal administration at 100 mg/kg in mice. It is filed as functional.
Settings: not given
Turning to `Oc1ccc2ccccc2c1C1=NN(c2ccccc2)C(c2ccc(Cl)cc2)C1` (stereo unspecified), the Activity is given as 46.28 s. Regarding `CN(C)c1ccc(C2CC(c3ccc(Br)cc3)=NN2c2ccccc2)cc1` (stereo unspecified), the Activity was 41.88 s. Turning to `Cc1ccc(C2=NN(c3ccccc3)C(c3ccc(N(C)C)cc3)C2)cc1` (stereo unspecified), the Activity is given as 50.15 s. On to `CN(C)c1ccc(C2CC(c3ccccc3)=NN2c2ccccc2)cc1` (stereo unspecified), for which the Activity stood at 22.95 s. Take `Oc1ccc(C2=NN(c3ccccc3)C(c3cccc(Br)c3)C2)cc1` (stereo unspecified): the Activity came to 32.46 s. For `COc1ccc(C2CC(c3c(O)ccc4ccccc34)=NN2c2ccccc2)cc1` (stereo unspecified), the Activity was found to be 50.78 s. On the same count and under the same terms, to `Oc1ccc2ccccc2c1C1=NN(c2ccccc2)C(c2ccccc2)C1` (stereo unspecified) belongs 50.33 s; to `CN(C)c1ccc(C2CC(c3ccccc3O)=NN2c2ccccc2)cc1` (stereo unspecified), 35.85 s. With `COc1cc(C2CC(c3c(O)ccc4ccccc34)=NN2c2ccccc2)cc(OC)c1OC` (stereo unspecified), the Activity was determined as 49.26 s. With `Oc1ccc2ccccc2c1C1=NN(c2ccccc2)C(c2ccc(Br)cc2)C1` (stereo unspecified), the Activity is recorded as 25.4 s.

Still in this test, the particulars now being: 100 mg/kg.
In the case of `CN(C)CCCN1c2ccccc2CCc2ccc(Cl)cc21` [CLOMIPRAMINE], the Activity was 33.81 s and 18.68 s.

In another test the test system is Mus musculus. The test can be described thus: Antidepressant activity determined by percentage change from control after intraperitoneal administration at 100 mg/kg in mice; n = 6. It is filed as functional.
Settings: not given
In the case of `Oc1ccc2ccccc2c1C1=NN(c2ccccc2)C(c2ccc(Cl)cc2)C1` (stereo unspecified), the Activity is -17.82%.

For `CN(C)c1ccc(C2CC(c3ccc(Br)cc3)=NN2c2ccccc2)cc1` (stereo unspecified), the Activity is -25.63%. In the case of `Cc1ccc(C2=NN(c3ccccc3)C(c3ccc(N(C)C)cc3)C2)cc1` (stereo unspecified), the Activity is -10.95%. Take `CN(C)c1ccc(C2CC(c3ccccc3)=NN2c2ccccc2)cc1` (stereo unspecified): the Activity is recorded as -59.25%. With `Oc1ccc(C2=NN(c3ccccc3)C(c3cccc(Br)c3)C2)cc1` (stereo unspecified), the Activity is recorded as -42.18%. On to `COc1ccc(C2CC(c3c(O)ccc4ccccc34)=NN2c2ccccc2)cc1` (stereo unspecified), for which the Activity is reported as -9.83%. Turning to `Oc1ccc2ccccc2c1C1=NN(c2ccccc2)C(c2ccccc2)C1` (stereo unspecified), the Activity was -10.63%. The same measure, in the same setting: next, `CN(C)c1ccc(C2CC(c3ccccc3O)=NN2c2ccccc2)cc1` (stereo unspecified): -36.34%; `COc1cc(C2CC(c3c(O)ccc4ccccc34)=NN2c2ccccc2)cc(OC)c1OC` (stereo unspecified): -12.53%; `Oc1ccc2ccccc2c1C1=NN(c2ccccc2)C(c2ccc(Br)cc2)C1` (stereo unspecified): -54.1%.

The values above are taken from ChEMBL document CHEMBL1141035, “Synthesis and antidepressant activity of some 1,3,5-triphenyl-2-pyrazolines and 3-(2''-hydroxy naphthalen-1''-yl)-1,5-diphenyl-2-pyrazolines” (2005).
